Our source for the IC50 and concentration values is patent US20120077802A1 (SUNOVION PHARMACEUTICALS INC., priority 2009, published 2012).

Data set [1] concerns the target T1, human histamine H3 receptor (Homo sapiens, UniProt Q9Y5N1).
T1 construct: host or cells: cells expressing the human H3 receptor
Kind of data set: H3 GTPγS assay (SPA method), histamine H3 in vitro assay. Type of data set: biochemical. As to conditions: GTPγ[35S] SPA, membranes of cells expressing human H3 receptor; in one embodiment HCl salts tested; read-out: Potency (functional potency as indicated by IC50).

Data set [2] in a line: In vivo rat PK, brain exposures. As to conditions: adult male rats, oral gavage in water; for concentration at 1 hr: 1 hr after dosing, read-out: Compound Concentration (ng/g rat brain) 1 hr; for concentration at 24 hr: 24 hr after dosing, read-out: Compound Concentration (ng/g rat brain) 24 hr. As to the method: In vivo rat PK studies were performed using certain compounds provided herein. In one embodiment, a compound was dissolved in water and was administered to adult male rats (n=3 per time point) by oral gavage at a dose of 3 to 10 mg/kg. The plasma samples were collected and brain tissues were harvested at various time points after dosing, e.g., 15 min, 30 min, 1 hr, 2 hr, and 24 hr after dosing. The PK samples were analyzed; and the compound concentrations in these samples were quantified by LC/MS. The pKa values of the R^6 moiety of the compounds were calculated using ACD Lab (Version 12.01).

Like-named read-outs stand apart in the source and are kept apart here.

T1 sequence (Q9Y5N1 whole entry): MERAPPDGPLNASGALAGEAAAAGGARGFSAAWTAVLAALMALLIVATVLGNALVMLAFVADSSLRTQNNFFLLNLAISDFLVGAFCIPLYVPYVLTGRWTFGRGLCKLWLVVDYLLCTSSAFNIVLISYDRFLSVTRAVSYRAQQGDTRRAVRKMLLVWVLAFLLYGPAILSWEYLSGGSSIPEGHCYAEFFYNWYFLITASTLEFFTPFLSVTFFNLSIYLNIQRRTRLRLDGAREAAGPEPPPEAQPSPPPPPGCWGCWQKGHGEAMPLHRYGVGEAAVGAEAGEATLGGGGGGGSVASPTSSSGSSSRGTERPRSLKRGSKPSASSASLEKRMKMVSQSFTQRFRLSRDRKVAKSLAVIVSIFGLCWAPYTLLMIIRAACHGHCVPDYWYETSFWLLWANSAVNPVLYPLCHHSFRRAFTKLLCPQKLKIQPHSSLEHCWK

By IC50 is commonly meant the concentration that gives 50% inhibition. For `c1cn2cc(-c3ccc4c(c3)CC3(CCN(C5CCC5)CC3)O4)ccc2n1` [Compound 30, 1′-Cyclobutyl-5-(imidazo[1,2-a]pyridin-6-yl)-3H-spiro[benzofuran-2,4′-piperidine]], the IC50 in data set [1] was not above 10 nM. In addition, in data set [2] (10 mg/kg), the concentration at 1 hr was found to be 5200 ng/g and the concentration at 24 hr is 250 ng/g.
Turning to `c1cc2c(cc1CN1CCCC1)CC1(CCN(C3CCC3)CC1)O2` [Compound 41, 1′-Cyclobutyl-5-(pyrrolidin-1-ylmethyl)-3H-spiro[benzofuran-2,4′-piperidine]], in data set [1], the IC50 is not above 10 nM. Besides, in data set [2] (3 mg/kg), the concentration at 1 hr was less than 25 ng/g and the concentration at 24 hr was 450 ng/g.
The matching figures for `c1cc2c(cc1CN1CCOCC1)CC1(CCN(C3CCC3)CC1)O2` [Compound 40, 1′-Cyclobutyl-5-(morpholinomethyl)-3H-spiro[benzofuran-2,4′-piperidine]]: not above 10 nM, 900 ng/g and 140 ng/g.
